In data set [1] the test system is 18 Ba/F3 EGFR mutant cell lines. The data set can be described thus: Anti-proliferation effect on 18 cell lines (overall result in words). It counts as cell-based. To be noted: all 18 Ba/F3 EGFR mutant cell lines of Table 1. The source says: The objective of the test example 1 was to evaluate the anti-proliferation effect of Furmonertinib mesilate on 18 cell lines (Ba/F3 EGFR-G719S, Ba/F3 EGFR-S768I, Ba/F3 EGFR-G724S, Ba/F3 EGFR-L718Q, Ba/F3 EGFR-Del19/G724S, Ba/F3 EGFR-E709H, Ba/F3 EGFR-L747S, Ba/F3 EGFR-E709V, Ba/F3 EGFR-L747V, Ba/F3 EGFR-E709-710>D, Ba/F3 EGFR-E709A, Ba/F3 EGFR-Del19/C797S, Ba/F3 EGFR-L858R/C797S, Ba/F3 EGFR-L747S/G719A, Ba/F3-EGFR-L858R-L718V, Ba/F3-EGFR-L858R-L718Q, Ba/F3-EGFR-E709K-G719A, and Ba/F3 EGFR-L861Q) using standard CellTiter-Glo® Luminescent Cell Viability Assay. Further, AZD9291 was used as control compound. […]
The cells during the logarithmic growth period were harvested and counted by using blood counting chamber. The cell viability was over 90% which was determined by trypan blue assay. […]
On Day 3, CellTiter-Glo® reagent (a luciferase ATP bioluminescence detection reagent) was thawed, and then the cell plate was equilibrated at room temperature for approximately 30 minutes. […] The luminescence was recorded by using Multi-mode Microplate Reader. […]

For data set [2] the following is noted: orally, once per day, 20 mg-240 mg; cited from earlier work.
Data set [3] can be described thus: Body weight and safety in the Ba/F3 EGFR-G724S xenograft model. The class given is in vivo, B-NDG mice. To be noted: 15, 30 and 50 mg/kg, orally, once per day, two weeks. An excerpt: This study was used for evaluate the anti-tumor efficacy of furmonertinib mesilate in the female (B-NDG) immune deficiency mice bearing tumors of Ba/F3 EGFR-G724S engineered cells.
Experimental animals: B-NDG mice, female, 6-8 weeks, and weighing 18-20 g.
Animal modeling and random grouping: Ba/F3 EGFR-G724S cells were cultivated, cells were collected, and re-suspended and counted in serum-free medium, the re-suspended cells with the addition of a matrigel at 1:1 were subcutaneous inoculated at 1×10^6 cells/0.1 mL in B-NDG mice. When the average tumor volume was about 80-120 mm^3, the animals were randomly grouped into four experiment groups according to the tumor size. Each group contained 12 mice. The grouping day was defined as Day 0, i.e., D0.
The experimental scheme: B-NDG mice were subcutaneously inoculated with Ba/F3 EGFR-G724S cells to establish a cell-line-derived xenograft model. […] During the whole experiment, the body weight and the tumor sizes of the mice were measured twice each week, and whether or not the presence of toxic reactions was observed. […]

Data set [4] relates to EGFR T790M positive advanced non-small cell lung cancer. To be noted: oral, 80 mg daily dose; patients progressed after prior systematic anti-tumor therapy; cited from earlier work.
Another data set has as its system Ba/F3 EGFR-E709H. The data set can be described thus: Anti-proliferation, CellTiter-Glo Luminescent Cell Viability Assay. To be noted: Mus musculus, BaF3, 72 h, 3 days. The class given is cell-based. The source says:
(§1) The objective of the test example 1 was to evaluate the anti-proliferation effect of Furmonertinib mesilate on 18 cell lines (Ba/F3 EGFR-G719S, Ba/F3 EGFR-S768I, Ba/F3 EGFR-G724S, Ba/F3 EGFR-L718Q, Ba/F3 EGFR-Del19/G724S, Ba/F3 EGFR-E709H, Ba/F3 EGFR-L747S, Ba/F3 EGFR-E709V, Ba/F3 EGFR-L747V, Ba/F3 EGFR-E709-710>D, Ba/F3 EGFR-E709A, Ba/F3 EGFR-Del19/C797S, Ba/F3 EGFR-L858R/C797S, Ba/F3 EGFR-L747S/G719A, Ba/F3-EGFR-L858R-L718V, Ba/F3-EGFR-L858R-L718Q, Ba/F3-EGFR-E709K-G719A, and Ba/F3 EGFR-L861Q) using standard CellTiter-Glo® Luminescent Cell Viability Assay. Further, AZD9291 was used as control compound.
(§2) Cell culture: Ba/F3 EGFR-G719S, Ba/F3 EGFR-S768I, Ba/F3 EGFR-G724S, Ba/F3 EGFR-L718Q, Ba/F3 EGFR-Del19/G724S, Ba/F3 EGFR-E709H, Ba/F3 EGFR-L747S, Ba/F3 EGFR-E709V, Ba/F3 EGFR-L747V, Ba/F3 EGFR-E709-710>D, Ba/F3 EGFR-E709A, Ba/F3 EGFR-Del19/C797S, Ba/F3 EGFR-L858R/C797S, Ba/F3 EGFR-L747S/G719A, Ba/F3-EGFR-L858R-L718V, Ba/F3-EGFR-L858R-L718Q, Ba/F3-EGFR-E709K-G719A, and Ba/F3 EGFR-L861Q engineered cells were obtained from Kyinno, and maintained at 37° C. with 5% CO2, in the RPMI1640 media supplemented with 10% fetal bovine serum.
(§3) The cells during the logarithmic growth period were harvested and counted by using blood counting chamber. The cell viability was over 90% which was determined by trypan blue assay. The cell concentration was adjusted with culture medium. 90 μl cell suspensions was added to two 96-well plates to obtain the final cell density of 3000 cells per well. The plates were incubated in humidified incubator at 37° C. with 5% CO2.
(§4) The solution of tested compounds (Furmonertinib mesilate and AZD9291) was diluted 1000-fold with DMSO. Then, said DMSO solution was diluted 100-fold with PBS (Phosphate Buffered Saline) to obtain 10× working solution. And 10× reference control solution was prepared by Phosphate Buffered Saline (PBS). 10 μl working solution (10×) was dispensed to each well (triplicate for each concentration). (The top concentration was 3160 nM, 3.16-fold dilution and 10 different concentrations. The final concentration of DMSO in culture medium was 0.1% [v/v]). The plate was cultured for 3 days.
(§5) On Day 3, CellTiter-Glo® reagent (a luciferase ATP bioluminescence detection reagent) was thawed, and then the cell plate was equilibrated at room temperature for approximately 30 minutes. 100 μl CellTiter-Glo® Reagent which was equal to the volume of cell culture medium present in each well was added. The obtained content was mixed for 5 minutes on an orbital shaker to induce cell lysis. The cell plate was incubated at room temperature for 20 minutes to stabilize luminescent signal. The luminescence was recorded by using Multi-mode Microplate Reader.
(§6) [formula] • blank control: medium control; • vehicle control: culture medium with 0.1% DMSO
(§7) The graphical curves were fitted using a nonlinear regression model with a sigmoidal dose response.
For orientation: In ATP-based viability assays light output follows the ATP content of the culture.

Another data set deals with Ba/F3 EGFR-Del19/G724S. The description is as above. The class given is cell-based. To be noted: Mus musculus, BaF3, 72 h, 3 days.
Text: as §1, §2, §3, §4, §5, §6, §7

The test system of a further data set is Ba/F3 EGFR-L861Q. The data set is described as above. The class given is cell-based. To be noted: Mus musculus, BaF3, 72 h, 3 days.
Text: as §1, §2, §3, §4, §5, §6, §7

The subject of another data set is Ba/F3 EGFR-L747V. The description is as above. To be noted: Mus musculus, BaF3, 72 h, 3 days. The class given is cell-based.
Text: as §1, §2, §3, §4, §5, §6, §7

The next data set relates to Ba/F3 EGFR-L747S/G719A. Described as above. It counts as cell-based. To be noted: Mus musculus, BaF3, 72 h, 3 days.
Text: as §1, §2, §3, §4, §5, §6, §7

In the next data set the test system is Ba/F3 EGFR-E709V. Described as above. The class given is cell-based. To be noted: Mus musculus, BaF3, 72 h, 3 days.
Text: as §1, §2, §3, §4, §5, §6, §7

The subject of the next data set is Ba/F3 EGFR-Del19/C797S. The data set is described as above. It counts as cell-based. To be noted: Mus musculus, BaF3, 72 h, 3 days.
Text: as §1, §2, §3, §4, §5, §6, §7

In general, IC50 refers to the midpoint of a concentration-inhibition curve.

As for `C=CC(=O)Nc1cc(Nc2nccc(-c3cn(C)c4ccccc34)n2)c(OCC(F)(F)F)nc1N(C)CCN(C)C` [Furmonertinib mesilate], in data set [1], the anti-proliferation effect result was “good anti-proliferation effect”. For the same compound, the “adverse events of subjects” value in [2] was “mild or moderate”. Further, in data set [2], the dose-related toxic reaction entry is on record as “does not occur”. Besides, the tolerance and safety entry in data set [2] was “the tolerance and the safety are good”. Also, in data set [3], the “effect on the body weight of mice” value is recorded as “little effect on the body weight of mice”. Besides, the safety entry in [3] is recorded as “good safety”. For the same compound, the anti-tumor effect result in data set [4] is given as “relatively good anti-tumor effect”. The disease progression result in data set [4] was “can alleviate or stabilize the disease progression”. Also, the IC50 was found to be 31.3 nM in the data set on Ba/F3 EGFR-E709H; 3.84 nM with Ba/F3 EGFR-Del19/G724S; 3.8 nM in the data set on Ba/F3 EGFR-L861Q; 31.6 nM in the data set with Ba/F3 EGFR-L747V; 16.5 nM in the data set on Ba/F3 EGFR-L747S/G719A; 14.3 nM in the data set with Ba/F3 EGFR-E709V. This compound also had an IC50 in the data set on Ba/F3 EGFR-Del19/C797S of 1220 nM.

The values are drawn from patent US20260315468A1, “PHARMACEUTICAL COMPOSITION AND USE THEREOF” (SHANGHAI ALLIST PHARMACEUTICAL CO., LTD., priority 2022, published 2026).
